Publication PMC8855934 (Journal of medicinal chemistry, 2021)

Key:
[1] = Oral exposures in mice; format: in vivo; conditions: oral gavage, non-tumor-bearing male mice (Table S1)
[2] = system: VCaP cell line; assay: Cell growth inhibition in the VCaP cell line; format: cell-based, human

SMILES	oral exposures in mice [1]	times less potent than compounds 35 and 36 (cell growth inhibition) [2]
N#Cc1ccc(O[C@H]2CC[C@H](NC(=O)c3ccc(NCCCCCNc4ccc5c(c4)C(=O)N(C4CCC(=O)NC4=O)C5=O)cc3)CC2)cc1Cl (stereo partly drawn) [Compound 13, N-((1R,4R)-4-(3-Chloro-4-cyanophenoxy)cyclohexyl)-4-((5-((2-(2,6-dioxopiperidin-3-yl)-1,3-dioxoisoindolin-5-yl)amino)pentyl)-amino)benzamide]	very low	–
N#Cc1ccc(N[C@H]2CC[C@H](NC(=O)c3ccc(N4CCC(N5CCN(c6ccc7c(c6)C(=O)N(C6CCC(=O)NC6=O)C7=O)CC5)CC4)cc3)CC2)cc1Cl (stereo partly drawn) [Compound 34, N-(1R,4R)-4-(((3-Chloro-4-cyanophenyl)amino)cyclohexyl)-4-(4-(4-(2-(2,6-dioxopiperidin-3-yl)-1,3-dioxoisoindolin-5-yl)piperazin-1-yl)piperidin-1-yl)benzamide]	–	~10
CCCN(c1ccc(C#N)c(Cl)c1)[C@H]1CC[C@H](NC(=O)c2ccc(N3CCC(N4CCN(c5ccc6c(c5)C(=O)N(C5CCC(=O)NC5=O)C6=O)CC4)CC3)cc2)CC1 (stereo partly drawn) [Compound 37, N-(1R,4R)-4-(((3-Chloro-4-cyanophenyl)(propyl)amino)-cyclohexyl)-4-(4-(4-(2-(2,6-dioxopiperidin-3-yl)-1,3-dioxoisoindolin-5-yl)piperazin-1-yl)piperidin-1-yl)benzamide]	–	> 40
